Test results taken from article PMC6891328, “Design, Synthesis and Biological Evaluation of Diosgenin-Amino Acid Derivatives with Dual Functions of Neuroprotection and Angiogenesis” (Molecules, 2019).
Values joined by “and” are separate entries in the source; they are usually repeats but may differ in a detail not shown here. Identical values can stand only once. Like-named read-outs stand apart in the source and are kept apart here. One block for each compound: values may come before it.

How the values were obtained:
H9c2 cells = assay: Biosafety (cytotoxicity) evaluation on H9c2 cells (MTT); assay type: cell-based, rat; conditions: for cytotoxicity (in words): H9c2, 3.125-50 μM
Protocol: (§1) Compounds DG-13 and DG-15 dissolved in DMSO were added to each well with required concentrations (3.125, 6.25, 12.5, 25, 50 µM). Then the control group were treated with the same volume of medium. The non-administered group were not treated (no cells and no medium). Then the sterile plates were further incubated for 4 h, following MTT addition. After 4 h, supernatant liquor was removed into the waste and all of the wells were then placed into the fresh DMSO (0.15 mL). The absorbance was measured using BIORAD 550 spectrophotometer with the emission wavelengths of 490 nm. Each data was measured three times in parallel survival fraction of cells, calculated by the equation: [OD490 (Drug group) − OD490 (non-administered group)]/[OD490 (Control group) − OD490 (non-administered group)] ×100%.

SH-SY5Y cells [1] = conditions: for EC50: read-out: EC50 (neuroprotection), SH-SY5Y damaged by TBHP, 24 h, MTT, n = 3
chorioallantoic membrane = assay: Angiogenesis in chorioallantoic membrane (CAM) model; assay type: in vivo, chicken; conditions: new vessels inner diameter < 100 μm
Protocol: The CAM was examined as a predictive model for the angiogenic activity studies of compounds DG-15. The wide end of the fresh fertilized egg was placed upward in an incubator at 37 °C with a relative humidity of 60%. All the eggs were turned every two hours to prevent from sticking to each other. Compound DG-15 was dissolved with acetone at a concentration of 1 mg/mL and 4 mg/mL and then 5 µL solution was transferred to gelatin sponge using a pipette respectively. The sham treatment group was added to the same volume of saline. Disinfected with UV lamp for 30 min. After 7 days, the broader said of eggs was disinfected with 70% alcohol, then a 30-mm-diameter window was carefully opened in the shell to reduce the chamber pressure before removed the upper shell membrane with tweezers. In addition, the non-fertilized oocytes and unhealthy developed embryos were thrown away. Then the gelatin sponge was embedded into the allantoic membrane and the window was sealed with adhesive tape, with the eggs being returned to the incubator. The eggs were then incubated 3 days after administration, fixed with methanol-acetone (1:1) for 10 min and repeated four times. […] The vascular growth was analyzed with a dissecting microscope and counted by software of Image Professional Plus 5.0 software (Media Cybernetics, Inc, MD, USA)

SH-SY5Y cells [2] = assay: Morphological observation of TBHP-damaged SH-SY5Y cells by Giemsa and DAPI staining; assay type: cell-based, human; conditions: TBHP-damaged SH-SY5Y, 10, 20, 40 μM
Protocol: Afterwards, the medium containing compound DG-15 were added to the cultures for 24 h and the concentration range of the examined compounds was 10, 20 and 40 µM. Then 0.1 mL TBHP was used to damage cells and the plate was cultured for further 24 h. Removing the culture medium, washing twice with PBS and fixing cells with 2 mL methanol for 2 min and 1 mL paraformaldehyde for 15 min respectively and washed with fresh PBS again. Giemsa solution or DAPI was added to stain the fixed cells for 2 min and protected from light. Finally, the cells ware washed with water and were observed under inverted fluorescent microscope.

[3] = Biosafety (cytotoxicity) evaluation on H9c2 cells (MTT); assay type: cell-based, rat; conditions: rat, H9c2 cells; H9c2, 50 μM, MTT; read-out: cell viability
Protocol: as §1

SMILES: CC1CCC2(OC1)OC1CC3C4CC=C5CC(OC(=O)C6CCCN6)CCC5(C)C4CCC3(C)C1C2C [DG-13, 3β-(L-proline)-diosgenin]
survival rate (H9c2 cells; H9c2, 25 μM, MTT): 12%
cytotoxicity (in words) (H9c2 cells; MTT): significantly enhanced compared with diosgenin
EC50 (SH-SY5Y cells [1]): 7.22 ± 1.58 µM

SMILES: CC1CCC2(OC1)OC1CC3C4CC=C5CC(OC(=O)CNC(=O)OC(C)(C)C)CCC5(C)C4CCC3(C)C1C2C (stereo not drawn) [DG-1, 3β-(N-Boc-glycine)-diosgenin]
melting point: 218.7 °C
EC50 (SH-SY5Y cells [1]): > 50 µM

SMILES: CC1CCC2(OC1)OC1CC3C4CC=C5CC(OC(=O)CN)CCC5(C)C4CCC3(C)C1C2C (stereo not drawn) [DG-10, 3β-(glycine)-diosgenin]
melting point: 110.8 °C
EC50 (SH-SY5Y cells [1]): > 50 µM

SMILES: CC1CCC2(OC1)OC1CC3C4CC=C5CC(OC(=O)C(Cc6ccccc6)NC(=O)OC(C)(C)C)CCC5(C)C4CCC3(C)C1C2C [DG-7, 3β-(N-Boc-L-phenylalanine)-diosgenin]
melting point: 163.4 °C
EC50 (SH-SY5Y cells [1]): > 50 µM

SMILES: CC1CCC2(OC1)OC1CC3C4CC=C5CC(OC(=O)CN(C)C(=O)OC(C)(C)C)CCC5(C)C4CCC3(C)C1C2C (stereo not drawn) [DG-3, 3β-(N-Boc-sarcosine)-diosgenin]
EC50 (SH-SY5Y cells [1]): 15.2 ± 0.96 µM

SMILES: CC1CCC2(OC1)OC1CC3C4CC=C5CC(OC(=O)C(C)N)CCC5(C)C4CCC3(C)C1C2C [DG-11, 3β-(L-alanine)-diosgenin]
melting point: 219.1 °C
EC50 (SH-SY5Y cells [1]): > 50 µM

SMILES: CC1CCC2(OC1)OC1CC3C4CC=C5CC(OC(=O)C(N)Cc6ccccc6)CCC5(C)C4CCC3(C)C1C2C [DG-16, 3β-(L-phenylalanine)-diosgenin]
EC50 (SH-SY5Y cells [1]): 11.4 µM and 11.2 µM

SMILES: CCC(C)C(N)C(=O)OC1CCC2(C)C(=CCC3C2CCC2(C)C3CC3OC4(CCC(C)CO4)C(C)C32)C1 [DG-15, 3β-(L-isoleucine)-diosgenin]
increase of number of blood vessels (chorioallantoic membrane; 1 mg/mL on gelatin sponge): 60.61%
increase of number of blood vessels (chorioallantoic membrane; 4 mg/mL on gelatin sponge): 80.30%
melting point: 147.1 °C
morphological change, DAPI staining (SH-SY5Y cells [2]): the number of SH-SY5Y cells was increasingly larger
morphological change, Giemsa staining (SH-SY5Y cells [2]): the typical signs for apoptosis were reduced
cytotoxicity (in words) (H9c2 cells; MTT): no cytotoxicity
inhibitory effect on cells (H9c2 cells; H9c2, concentrations below 25 μM): no inhibitory effect
EC50 (SH-SY5Y cells [1]): 6.86 ± 0.69 µM

melting point: 218.9 °C
SMILES: CC1CCC2(OC1)OC1CC3C4CC=C5CC(OC(=O)C(C)NC(=O)OC(C)(C)C)CCC5(C)C4CCC3(C)C1C2C [DG-2, 3β-(N-Boc-L-alanine)-diosgenin]

SMILES: CC1CCC2(OC1)OC1CC3C4CC=C5CC(OC(=O)C(N)C(C)C)CCC5(C)C4CCC3(C)C1C2C [DG-17, 3β-(L-valine)-diosgenin]
melting point: 139.1 °C
EC50 (SH-SY5Y cells [1]): > 50 µM

SMILES: CC(C)CC(N)C(=O)OC1CCC2(C)C(=CCC3C2CCC2(C)C3CC3OC4(CCC(C)CO4)C(C)C32)C1 [DG-14, 3β-(L-leucine)-diosgenin]
melting point: 154.4 °C
EC50 (SH-SY5Y cells [1]): 32.6 ± 0.97 µM

SMILES: CC(C)CC(NC(=O)OC(C)(C)C)C(=O)OC1CCC2(C)C(=CCC3C2CCC2(C)C3CC3OC4(CCC(C)CO4)C(C)C32)C1 [DG-5, 3β-(N-Boc-L-leucine)-diosgenin]
EC50 (SH-SY5Y cells [1]): 9.51 ± 1.79 µM

SMILES: CC1=NN(c2ccccc2)C(=O)C1 [Edaravone, edaravone, reference compound]
EC50 (SH-SY5Y cells [1]): 21.6 ± 3.04 µM

SMILES: CCC(C)C(NC(=O)OC(C)(C)C)C(=O)OC1CCC2(C)C(=CCC3C2CCC2(C)C3CC3OC4(CCC(C)CO4)C(C)C32)C1 [DG-6, 3β-(N-Boc-L-isoleucine)-diosgenin]
EC50 (SH-SY5Y cells [1]): 18.5 ± 1.87 µM

SMILES: CC1CCC2(OC1)OC1CC3C4CC=C5CC(OC(=O)C(CCCCNC(=O)OCc6ccccc6)NC(=O)OCc6ccccc6)CCC5(C)C4CCC3(C)C1C2C [DG-9, 3β-(N-Cbz-L-lysine)-diosgenin]
melting point: 135.8 °C
EC50 (SH-SY5Y cells [1]): 36.2 ± 8.67 µM

SMILES: CC1CCC2(OC1)OC1CC3C4CC=C5CC(OC(=O)C(NC(=O)OCc6ccccc6)C(C)C)CCC5(C)C4CCC3(C)C1C2C [DG-8, 3β-(N-Cbz-L-valine)-diosgenin]
melting point: 158.4 °C
EC50 (SH-SY5Y cells [1]): 38.1 ± 6.68 µM

SMILES: CC1CCC2(OC1)OC1CC3C4CC=C5CC(OC(=O)C(N)CCCCN)CCC5(C)C4CCC3(C)C1C2C [DG-18, 3β-(L-lysine)-diosgenin]
melting point: 189.4 °C
cytotoxicity seen in neuroprotective activity evaluation (in words) (SH-SY5Y cells [1]; SH-SY5Y, compared with compounds with neutral amino acids): higher cytotoxicity
EC50 (SH-SY5Y cells [1]): > 50 µM

SMILES: CNCC(=O)OC1CCC2(C)C(=CCC3C2CCC2(C)C3CC3OC4(CCC(C)CO4)C(C)C32)C1 (stereo not drawn) [DG-12, 3β-(sarcosine)-diosgenin]
melting point: 176 °C
EC50 (SH-SY5Y cells [1]): > 50 µM

SMILES: C[C@@H]1CC[C@@]2(OC1)O[C@H]1C[C@H]3[C@@H]4CC=C5C[C@@H](O)CC[C@]5(C)[C@H]4CC[C@]3(C)[C@H]1[C@@H]2C [DG, diosgenin]
viability at 50 µM [3]: ~60%
cytotoxicity (in words) (H9c2 cells; MTT): toxic under all treated groups
EC50 (SH-SY5Y cells [1]): > 50 µM
EC50 (SH-SY5Y cells [1]; listed as diosgenin): > 40 µM

SMILES: CC1CCC2(OC1)OC1CC3C4CC=C5CC(OC(=O)C6CCCN6C(=O)OC(C)(C)C)CCC5(C)C4CCC3(C)C1C2C [DG-4, 3β-(N-Boc-L-proline)-diosgenin]
melting point: 183.4 °C
EC50 (SH-SY5Y cells [1]): 23.8 ± 6.83 µM
